Entries after “also recorded” stand apart in the source; their conditions may differ.
Key:
[1] = target: T1, Medicago truncatula NFP ectodomain (NFP-ECD, residues 28-246), wild type, SEQ ID NO: 1 (Medicago truncatula, UniProt Q0GXS4); assay: Microscale thermophoresis (MST) binding of NFP to carbohydrate ligands; settings: read-out: Dissociation constant (Kd)
T1 construct: The Medicago truncatula NFP ectodomain (residues 28-246); AcMNPV gp67 signal peptide (replaces native signal peptide 1-27) (N); hexa-histidine tag (C); made in house; host or cells: Sf9 cells (Spodoptera frugiperda), baculovirus
Description: Expression and purification of Medicago NFP ectodomain: The Medicago truncatula NFP ectodomain (residues 28-246) was codon-optimized for insect cell expression (Genscript, Piscataway, USA) and cloned into the pOET4 baculovirus transfer vector (Oxford Expression Technologies). The native NFP signal peptide (residues 1-27, predicted by SignalP 4.1) was replaced with the AcMNPV gp67 signal peptide to facilitate secretion and a hexa-histidine tag was added to the C-terminus. Point mutants of NFP were engineered using site-directed mutagenesis. Recombinant baculoviruses were produced in Sf9 cells (Spodoptera frugiperda) using the FlashBac Gold kit (Oxford Expression technologies) according to the manufacturer's instructions with Lipofectin (ThermoFisher Scientific) as a transfection reagent. Protein expression was performed as follows. Suspension-cultured Sf9 cells were maintained with shaking at 299 K in serum-free MAX-XP (BD-Biosciences, discontinued) or HyClone SFX (GE Healthcare) medium supplemented with 1% Pen-Strep (10000 U/ml, Life technologies) and 1% CD lipid concentrate (Gibco). Protein expression was induced by adding recombinant passage 3 virus once the Sf9 cells reached a cell density of 1.0*10^7^6 cells/ml. After 5-7 days of expression, medium supernatant containing NFP ectodomains was harvested by centrifugation. This was followed by an overnight dialysis step against 50 mM Tris-HCl pH 8, 200 mM NaCl at 277 K. The NFP ectodomain was enriched by two subsequent steps of Ni-IMAC purification (HisTrap excel/HisTrap HP, both GE Healthcare). For crystallography experiments, N-glycans were removed using the endoglycosidase PNGase F (1:15 (w/w), room temperature, overnight). As a final purification step, NFP ectodomain was purified by SEC on a Superdex 200 10/300 or HiLoad Superdex 200 16/600 (both GE Healthcare) in phosphate buffered saline at pH 7.2 supplemented to a total of 500 mM NaCl (for binding assays) or 50 mM Tris-HCl, 200 mM NaCl (for crystallography). NFP ectodomain elutes as a single, homogeneous peak corresponding to a monomer. […]

[2] = target: T2, Medicago NFP ectodomain (NFP-ECD, WT) (Medicago truncatula, UniProt Q0GXS4); assay: Biolayer interferometry (BLI) binding of NFP-ECD to immobilized biotinylated ligands; settings: further BLI assays, FIGS. 15B-15E; listed as chitin
T2 construct: The Medicago truncatula NFP ectodomain (residues 28-246) was codon-optimized; AcMNPV gp67 signal peptide (replaces native signal peptide 1-27) (N); made in house; host or cells: Sf9 (Spodoptera frugiperda), baculovirus, secreted into medium
T2 sequence (Q0GXS4 28-246): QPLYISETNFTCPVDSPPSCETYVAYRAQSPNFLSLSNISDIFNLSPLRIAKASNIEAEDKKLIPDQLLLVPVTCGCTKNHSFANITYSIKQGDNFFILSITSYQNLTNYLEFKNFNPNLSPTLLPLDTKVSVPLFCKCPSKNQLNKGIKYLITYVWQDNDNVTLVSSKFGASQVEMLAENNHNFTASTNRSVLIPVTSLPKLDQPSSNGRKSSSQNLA
Description: (§1) Expression and purification of Medicago NFP ectodomain: The Medicago truncatula NFP ectodomain (residues 28-246) was codon-optimized for insect cell expression (Genscript, Piscataway, USA) and cloned into the pOET4 baculovirus transfer vector (Oxford Expression Technologies). The native NFP signal peptide (residues 1-27, predicted by SignalP 4.1) was replaced with the AcMNPV gp67 signal peptide to facilitate secretion and a hexa-histidine tag was added to the C-terminus. Point mutants of NFP were engineered using site-directed mutagenesis. Recombinant baculoviruses were produced in Sf9 cells (Spodoptera frugiperda) using the FlashBac Gold kit (Oxford Expression technologies) according to the manufacturer's instructions with Lipofectin (ThermoFisher Scientific) as a transfection reagent. Protein expression was performed as follows. Suspension-cultured Sf9 cells were maintained with shaking at 299 K in serum-free MAX-XP (BD-Biosciences, discontinued) or HyClone SFX (GE Healthcare) medium supplemented with 1% Pen-Strep (10000 U/ml, Life technologies) and 1% CD lipid concentrate (Gibco). Protein expression was induced by adding recombinant passage 3 virus once the Sf9 cells reached a cell density of 1.0*10^7^6 cells/ml. After 5-7 days of expression, medium supernatant containing NFP ectodomains was harvested by centrifugation. This was followed by an overnight dialysis step against 50 mM Tris-HCl pH 8, 200 mM NaCl at 277 K. The NFP ectodomain was enriched by two subsequent steps of Ni-IMAC purification (HisTrap excel/HisTrap HP, both GE Healthcare). For crystallography experiments, N-glycans were removed using the endoglycosidase PNGase F (1:15 (w/w), room temperature, overnight). As a final purification step, NFP ectodomain was purified by SEC on a Superdex 200 10/300 or HiLoad Superdex 200 16/600 (both GE Healthcare) in phosphate buffered saline at pH 7.2 supplemented to a total of 500 mM NaCl (for binding assays) or 50 mM Tris-HCl, 200 mM NaCl (for crystallography). NFP ectodomain elutes as a single, homogeneous peak corresponding to a monomer. Point mutated versions of NFP were expressed and purified following the same protocol.
(§2) Biolayer interferometry (BLI): Binding of NFP and mutated versions of NFP to ligands was measured on an Octet RED 96 system (Pall ForteBio). The ligands used were LCO-IV (from S. meliloti), LCO-V (from S. meliloti), LCO-V (from M. loti), and C06 (from M. loti). S. meliloti LCO consists of a tetrameric/pentameric N-acetylglucosamine backbone that is 0-sulfated on the reducing terminal residue, 0-acetylated on the non-reducing terminal residue, and mono-N-acylated by unsaturated C16 acyl groups. M. loti LCO is a pentameric N-acetylglucosamine with a cis-vaccenic acid and a carbamoyl group at the non-reducing terminal residue together with a 2,4-O-acetylfucose at the reducing terminal residue. Biotinylated ligand conjugates were immobilized on streptavidin biosensors (kinetic quality, Pall ForteBio) at a concentration of 125-250 nM for 5 minutes. The binding assays using the S. meliloti ligands (LCO-IV and LCO-V) were replicated seven times, while the binding assays using the M loti ligands (LCO-V and C06) were replicated six times. Data analysis was performed in GraphPad Prism 6 software (GraphPad Software, Inc.). Equilibrium dissociation constants derived from the steady-state were determined by applying a non-linear regression (one site, specific binding) to the response at equilibrium plotted against the protein concentration. Kinetic parameters were determined by non-linear regression (association followed by dissociation) on the subtracted data.
(§3) Mutated lipochitooligosaccharide (LCO) ligands: S. meliloti LCO consists of a tetrameric/pentameric N-acetylglucosamine backbone that is O-sulfated on the reducing terminal residue, O-acetylated on the non-reducing terminal residue, and mono-N-acylated by unsaturated C16 acyl groups. […]

HvRLK10 ectodomain = assay: BLI binding of HvRLK10 ectodomain to ligands; set-up: species or system H. vulgare; settings: FIGS. 13A, 13C, 13D
[3] = target: T1, Medicago truncatula NFP ectodomain (NFP-ECD, residues 28-246), wild type, SEQ ID NO: 1; assay: Biolayer interferometry (BLI) binding of NFP / NFP-ECD to immobilized LCO and CO ligands; settings: further BLI assays, FIGS. 15B-15E, analyte 1.56-100 μM; listed as chitin
Description: as §1, §2, §3

[4] = target: T3, Hordeum vulgare RLK10 (HvRLK10; HvLysM-RLK10) ectodomain (residues 25-231), SEQ ID NO: 29 (construct SEQ ID NO: 28) (Hordeum vulgare, UniProt A0A8I6Y103); assay: BLI binding of barley HvRLK10 ectodomain; set-up: species or system Hordeum vulgare (barley); settings: FIGS. 13A, 13C-13D
T3 construct: full-length natural protein 633 aa beginning […]
T3 sequence (A0A8I6Y103 25-231): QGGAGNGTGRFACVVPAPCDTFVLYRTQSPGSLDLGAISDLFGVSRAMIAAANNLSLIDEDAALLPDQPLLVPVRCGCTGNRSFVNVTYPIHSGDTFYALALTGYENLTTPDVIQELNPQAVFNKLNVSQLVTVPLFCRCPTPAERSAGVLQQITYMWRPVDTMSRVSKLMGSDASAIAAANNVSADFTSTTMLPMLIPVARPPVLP

Compound `CC(=O)N[C@H]1[C@H](O[C@H]2[C@H](O)[C@@H](NC(C)=O)C(O)O[C@@H]2CO)O[C@H](CO)[C@@H](O[C@@H]2O[C@H](CO)[C@@H](O[C@@H]3O[C@H](CO)[C@@H](O)[C@H](O)[C@H]3NC(C)=O)[C@H](O)[C@H]2NC(C)=O)[C@@H]1O` (stereo partly drawn) [CO4] has a Kd [1] of 150 µM.

In the case of `CC(=O)N[C@H]1[C@H](O[C@H]2[C@H](O)[C@@H](NC(C)=O)[C@H](O[C@H]3[C@H](O)[C@@H](NC(C)=O)C(O)O[C@@H]3CO)O[C@@H]2CO)O[C@H](CO)[C@@H](O[C@@H]2O[C@H](CO)[C@@H](O[C@@H]3O[C@H](CO)[C@@H](O)[C@H](O)[C@H]3NC(C)=O)[C@H](O)[C@H]2NC(C)=O)[C@@H]1O` (stereo partly drawn) [CO5], the “NFP-ECD binding (BLI)” value [2] is reported as “did not bind; also recorded: does not bind”, the “HvRLK10 ectodomain binding (BLI)” value (HvRLK10 ectodomain) is reported as “did not bind” and the “Binding to NFP-ECD (in words)” value [3] is reported as “did not bind; also recorded: does not bind”. The Kd [1] was 93 µM and the “Binding to HvRLK10 ectodomain (in words)” value [4] was “did not bind”.
